# From US10710986B2, “PD-1/PD-L1 inhibitors” (Gilead Sciences, Inc., priority 2018, dated 2020)
# Target: PD-1/PD-L1 (Homo sapiens (Human), UniProt Q9NZQ7)
# Assay: PD-1/PD-L1 biochemical protein-protein interaction assay (ALPHA)
# Details: 0.3 nM His tagged PD-L1, 2.5 nM biotinylated Fc-PD-1, 60 minutes at 25° C., read-out: IC50 PD-L1-PD1
# Chain of PD-1/PD-L1 (Q9NZQ7 19-238): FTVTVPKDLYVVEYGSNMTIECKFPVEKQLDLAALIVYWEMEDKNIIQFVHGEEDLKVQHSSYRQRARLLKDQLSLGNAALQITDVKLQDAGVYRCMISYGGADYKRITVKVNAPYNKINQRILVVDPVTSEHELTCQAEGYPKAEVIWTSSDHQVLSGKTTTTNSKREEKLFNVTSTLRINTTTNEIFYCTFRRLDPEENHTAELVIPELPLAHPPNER
row,SMILES,IC50 [pM]
1,COc1nc(-c2cccc(-c3cccc(-c4cnc(CNC5CC6CC6C5)c(OC)n4)c3Cl)c2Cl)cnc1CNC[C@@H]1CCC(=O)N1 (stereo partly shown) [compound 273],265
2,COc1nc(-c2cccc(-c3cccc(-c4cnc(CN[C@H]5C[C@@](C)(O)C5)c(OC)n4)c3Cl)c2Cl)cnc1CNC[C@@H]1CCC(=O)N1 [compound 274],117
3,COc1nc(-c2cccc(-c3cccc(-c4cnc(CNC[C@H]5C[C@H](O)C5)c(OC)n4)c3Cl)c2Cl)cnc1CNC[C@@H]1CCC(=O)N1 [compound 275],64
4,COc1nc(-c2cccc(-c3cccc(-c4cnc(CN[C@@H]5C[C@H]5CO)c(OC)n4)c3Cl)c2Cl)cnc1CNC[C@@H]1CCC(=O)N1 [compound 276],270
5,COc1nc(-c2cccc(-c3cccc(-c4cnc(CNC[C@@H]5CCC(=O)N5)c(OC)n4)c3Cl)c2Cl)cnc1CNCC1COC(=O)N1 (stereo partly shown) [compound 281],1190
6,COc1nc(-c2cccc(-c3cccc(-c4cnc(CNCC5(O)CCS(=O)(=O)C5)c(OC)n4)c3Cl)c2Cl)cnc1CNC[C@@H]1CCC(=O)N1 (stereo partly shown) [compound 286],60
7,CNC(=O)CNCc1ncc(-c2cccc(-c3cccc(-c4cnc(CNC[C@@H]5CCC(=O)N5)c(OC)n4)c3Cl)c2Cl)nc1OC [compound 288],260
8,COc1nc(-c2cccc(-c3cccc(-c4cnc(CN5CCC6(CC5)NC(=O)NC6=O)c(OC)n4)c3Cl)c2Cl)cnc1CNC[C@@H]1CCC(=O)N1 [compound 290],259
9,COc1nc(-c2cccc(-c3cccc(-c4cnc(CN5CCC6(C5)NC(=O)N(C)C6=O)c(OC)n4)c3Cl)c2Cl)cnc1CNC[C@@H]1CCC(=O)N1 (stereo partly shown) [compound 294],298
10,COc1nc(-c2cccc(-c3cccc(-c4cnc(CNC[C@@H]5CCC(=O)N5)c(OC)n4)c3Cl)c2Cl)cnc1CNCC(N)=O [compound 302],89
11,COc1nc(-c2cccc(-c3cccc(-c4cnc(CNC[C@@H]5CCC(=O)N5C)c(OC)n4)c3Cl)c2Cl)cnc1CNC[C@@H]1CCC(=O)N1 [compound 303],256
12,COc1nc(-c2cccc(-c3cccc(-c4cnc(CN[C@@H](CO)C(N)=O)c(OC)n4)c3Cl)c2Cl)cnc1CNC[C@@H]1CCC(=O)N1 [compound 304],290
13,COc1nc(-c2cccc(-c3cccc(-c4cnc(CNC[C@@H]5CCC(=O)N5)c(OC)n4)c3Cl)c2Cl)cnc1CNCc1cccn(C)c1=O [compound 305],244
14,COc1nc(-c2cccc(-c3cccc(-c4cnc(CNC[C@@H]5CCC(=O)N5)c(OC)n4)c3Cl)c2Cl)cnc1CNCC1CCS(=O)(=O)N1 (stereo partly shown) [compound 306],245
15,COc1nc(-c2cccc(-c3cccc(-c4cnc(CNC[C@@H]5CCC(=O)N5)c(OC)n4)c3Cl)c2Cl)cnc1CNCC1CS(=O)(=O)C1 [compound 311],240
16,COc1nc(-c2cccc(-c3cccc(-c4cnc(CNC[C@@H]5CCC(=O)N5)c(OC)n4)c3Cl)c2Cl)cnc1CNCC[C@H]1CCC(=O)N1 [compound 314],142
17,COc1nc(-c2cccc(-c3cccc(-c4cnc([C@@H](C)N)c(OC)n4)c3Cl)c2Cl)cnc1CNC[C@@H]1CCC(=O)N1 [compound 315],180
18,COc1nc(-c2cccc(-c3cccc(-c4cnc([C@H](C)N)c(OC)n4)c3Cl)c2Cl)cnc1CNC[C@@H]1CCC(=O)N1 [compound 316],170
19,COc1nc(-c2cccc(-c3cccc(-c4cnc(CN[C@@H](C)[C@H]5CCC(=O)N5)c(OC)n4)c3Cl)c2Cl)cnc1CN[C@@H](C)[C@H]1CCC(=O)N1 [compound 317],220
20,CNc1nc(-c2cccc(-c3cccc(-c4cnc(CN(C)C[C@@H]5CCC(=O)N5)c(NC)n4)c3Cl)c2Cl)cnc1CN(C)C[C@@H]1CCC(=O)N1 [compound 319],3870
21,CNc1nc(-c2cccc(-c3cccc(-c4cnc(CNC[C@H]5CCC(=O)N5)c(NC)n4)c3Cl)c2Cl)cnc1CNC[C@H]1CCC(=O)N1 [compound 320],3720
22,COc1nc(-c2cccc(-c3cccc(-c4cnc(CN[C@@H]5CCN(S(C)(=O)=O)C5)c(OC)n4)c3Cl)c2Cl)cnc1CN[C@@H]1CCN(S(C)(=O)=O)C1 [compound 321],460
23,COc1nc(-c2cccc(-c3cccc(-c4cnc(CN(C)C[C@@H]5CCC(=O)N5)c(OC)n4)c3Cl)c2Cl)cnc1CN(C)CCO [compound 322],230
24,COc1nc(-c2cccc(-c3cccc(-c4cnc(CN(C)CCO)c(OC)n4)c3Cl)c2Cl)cnc1CNC[C@@H]1CCC(=O)N1 [compound 323],120
25,COc1nc(-c2cccc(-c3cccc(-c4cnc(CNC[C@H]5NC(=O)[C@@H]6C[C@H]56)c(OC)n4)c3Cl)c2Cl)cnc1CNC[C@H]1NC(=O)[C@@H]2C[C@H]12 [compound 324],358
26,COc1nc(-c2cccc(-c3cccc(-c4cnc(CN(Cc5ccccc5)C[C@@H]5CCC(=O)N5)c(OC)n4)c3Cl)c2Cl)cnc1CNC[C@@H]1CCC(=O)N1 [compound 325],1860
27,COc1nc(-c2cccc(-c3cccc(-c4cnc(CNC[C@@H]5C[C@@H](C)C(=O)N5)c(OC)n4)c3Cl)c2Cl)cnc1CNC[C@@H]1C[C@@H](C)C(=O)N1 [compound 326],180

# Second part, the molecule after the results:
row,IC50 [pM],SMILES
1,378,COc1nc(-c2cccc(-c3cccc(-c4cnc(CN5CCC[C@@H](F)C5)c(OC)n4)c3Cl)c2Cl)cnc1CNC[C@@H]1CCC(=O)N1 [compound 270]
2,1700,COc1nc(-c2cccc(-c3cccc(-c4cnc(CN5CCCC(F)(F)C5)c(OC)n4)c3Cl)c2Cl)cnc1CNC[C@@H]1CCC(=O)N1 [compound 271]
3,2430,COc1nc(-c2cccc(-c3cccc(-c4cnc(CN5CCCC(C(F)F)C5)c(OC)n4)c3Cl)c2Cl)cnc1CNC[C@@H]1CCC(=O)N1 (stereo partly shown) [compound 272]
4,652,COc1nc(-c2cccc(-c3cccc(-c4cnc(CN5CC[C@H](O)[C@@H](F)C5)c(OC)n4)c3Cl)c2Cl)cnc1CNC[C@@H]1CCC(=O)N1 [compound 277]
5,538,COc1nc(-c2cccc(-c3cccc(-c4cnc(CN5CC[C@@H](O)[C@@H](F)C5)c(OC)n4)c3Cl)c2Cl)cnc1CNC[C@@H]1CCC(=O)N1 [compound 278]
6,343,COc1nc(-c2cccc(-c3cccc(-c4cnc(CN5CC[C@@H](O)[C@H](F)C5)c(OC)n4)c3Cl)c2Cl)cnc1CNC[C@@H]1CCC(=O)N1 [compound 279]
7,180,COc1nc(-c2cccc(-c3cccc(-c4cnc(CN5CC[C@H](O)[C@H](F)C5)c(OC)n4)c3Cl)c2Cl)cnc1CNC[C@@H]1CCC(=O)N1 [compound 280]
8,1570,COc1nc(-c2cccc(-c3cccc(-c4cnc(CN5CCC(F)(F)CC5)c(OC)n4)c3Cl)c2Cl)cnc1CNC[C@@H]1CCC(=O)N1 [compound 282]
9,711,COc1nc(-c2cccc(-c3cccc(-c4cnc(CNC5CC(F)C5)c(OC)n4)c3Cl)c2Cl)cnc1CNC[C@@H]1CCC(=O)N1 (stereo partly shown) [compound 283]
10,816,COc1nc(-c2cccc(-c3cccc(-c4cnc(CNC5CC(F)(F)C5)c(OC)n4)c3Cl)c2Cl)cnc1CNC[C@@H]1CCC(=O)N1 [compound 284]
11,358,COc1nc(-c2cccc(-c3cccc(-c4cnc(CN5CCCC(NC(C)=O)C5)c(OC)n4)c3Cl)c2Cl)cnc1CNC[C@H]1CCC(=O)N1 (stereo partly shown) [compound 285]
12,340,COc1nc(-c2cccc(-c3cccc(-c4cnc(CN5CC[C@H]6CNC(=O)[C@H]65)c(OC)n4)c3Cl)c2Cl)cnc1CNC[C@@H]1CCC(=O)N1 [compound 287]
13,60,COc1nc(-c2cccc(-c3cccc(-c4cnc(CN5CC6(CC(O)C6)C5)c(OC)n4)c3Cl)c2Cl)cnc1CNC[C@@H]1CCC(=O)N1 [compound 289]
14,216,COc1nc(-c2cccc(-c3cccc(-c4cnc(CN5CCCC6(C5)NC(C)=NC6=O)c(OC)n4)c3Cl)c2Cl)cnc1CNC[C@@H]1CCC(=O)N1 (stereo partly shown) [compound 291]
15,229,COc1nc(-c2cccc(-c3cccc(-c4cnc(CN5CCC6(C5)NC(=O)NC6=O)c(OC)n4)c3Cl)c2Cl)cnc1CNC[C@@H]1CCC(=O)N1 (stereo partly shown) [compound 292]
16,516,COc1nc(-c2cccc(-c3cccc(-c4cnc(CN5CCCC6(C5)NC(=O)NC6=O)c(OC)n4)c3Cl)c2Cl)cnc1CNC[C@@H]1CCC(=O)N1 (stereo partly shown) [compound 293]
17,414,COc1nc(-c2cccc(-c3cccc(-c4cnc(CN[C@@H]5CCO[C@@H]5C)c(OC)n4)c3Cl)c2Cl)cnc1CNC[C@@H]1CCC(=O)N1 [compound 295]
18,222,COc1nc(-c2cccc(-c3cccc(-c4cnc(CNC[C@@H]5CCC(=O)N5)c(OC)n4)c3Cl)c2Cl)cnc1CNC[C@H]1CCOC1 [compound 296]
19,254,COc1nc(-c2cccc(-c3cccc(-c4cnc(CN(C)[C@H]5CCOC5)c(OC)n4)c3Cl)c2Cl)cnc1CNC[C@@H]1CCC(=O)N1 [compound 297]
20,181,COc1nc(-c2cccc(-c3cccc(-c4cnc(CN5CCC6(CC(CO)C6)C5)c(OC)n4)c3Cl)c2Cl)cnc1CNC[C@@H]1CCC(=O)N1 (stereo partly shown) [compound 298]
21,299,COc1nc(-c2cccc(-c3cccc(-c4cnc(CN5CC[C@@H](CO)[C@@H](O)C5)c(OC)n4)c3Cl)c2Cl)cnc1CNC[C@@H]1CCC(=O)N1 [compound 300]
22,250,COc1nc(-c2cccc(-c3cccc(-c4cnc(CN5CC6(CCS6(=O)=O)C5)c(OC)n4)c3Cl)c2Cl)cnc1CNC[C@@H]1CCC(=O)N1 [compound 301]
23,167,COc1nc(-c2cccc(-c3cccc(-c4cnc(CN5CC6(C5)CC(C)(O)C6)c(OC)n4)c3Cl)c2Cl)cnc1CNC[C@@H]1CCC(=O)N1 [compound 307]
24,337,COc1nc(-c2cccc(-c3cccc(-c4cnc(CN5CC6(C5)CC(O)(C(F)(F)F)C6)c(OC)n4)c3Cl)c2Cl)cnc1CNC[C@@H]1CCC(=O)N1 [compound 308]
25,178,COC[C@H]1CCN1Cc1ncc(-c2cccc(-c3cccc(-c4cnc(CNC[C@@H]5CCC(=O)N5)c(OC)n4)c3Cl)c2Cl)nc1OC [compound 309]
26,216,COC[C@@H]1CCN1Cc1ncc(-c2cccc(-c3cccc(-c4cnc(CNC[C@@H]5CCC(=O)N5)c(OC)n4)c3Cl)c2Cl)nc1OC [compound 310]
27,295,COc1nc(-c2cccc(-c3cccc(-c4cnc(CN5C[C@H]6CC(=O)N[C@H]6C5)c(OC)n4)c3Cl)c2Cl)cnc1CNC[C@@H]1CCC(=O)N1 [compound 312]
28,150,COc1nc(-c2cccc(-c3cccc(-c4cnc(CNC[C@@H]5CCC(=O)N5)c(OC)n4)c3Cl)c2Cl)cnc1CN [compound 318]
